Experimental findings from US20240360134A1, “PYRAZOLOPYRIMIDINES AND THEIR USES AS PDGFR INHIBITORS” (priority 2021, published 2024) are described below.

Where only a bound is given, the exact number is not on record here.

Experiment [1] has as its target His6-TEV-PDGFRβ (557-1016) (Homo sapiens (Human), UniProt P09619). Nature of the experiment: PDGFRβ HTRF Assay. The conditions noted are these: 800 μM ATP, 0.5 μM TK-substrate biotin peptide, 30 min pre-incubation, 3 hours reaction; read-out: PDGFR HTRF IC50. The class given is biochemical. How it is done:
Instrumentation: a. Compound liquid handling: LabCyte Echo; b. Reagent liquid handling: Thermo Scientific Multidrop Combi; c. BMG PHERAStar multilabel plate reader.
Protein Reagent: His6-TEV-PDGFRβ Protein Prep prepared at Accelagen.
Assay buffer stock solution, contains 50 mM Hepes, 10 mM MgCl2, 1 mM EGTA, and 0.01% Brij-35, 0.01% ovalbumin, 2 mM DTT at pH 7.5, in molecular biology grade water. Store at room temperature.
Assay buffer. Dilute 5× Kinase buffer 5-fold with molecular biology grade water and add DTT to 2 mM and ovalbumin to 0.1 mg/mL (or 0.01%).
2× protein solution. Make a working solution of […] PDGFRβ in assay buffer. Keep on ice until use to maintain enzyme stability.
2× substrate solution. Make a working solution of 1.6 mM ATP and 1 μM TK-substrate biotin peptide in assay buffer. 3× quench/detection solution.
Step 2. PDGFRβ E+I pre-incubation: Add 2 μL 2× protein solution to columns 1-24 using the Multidrop Combi. Centrifuge at 1000 rpm for 1 min. Incubate 30 min at RT
Step 2. Enzymatic reaction: Add 2 μL substrate solution to columns 1-24 to initiate the reaction using the Multidrop Combi; cover/seal the assay plate to reduce evaporation. Centrifuge at 1000 rpm for 1 min. Incubate at room temperature for 3 hours.
Final concentrations of components in PDGFRp cascade assay:
0.5 μM TK-substrate biotin peptide
Step 3. Quench/Detection: Add 2 μl 3× quench/detection solution to columns 1-24 using the Multidrop Combi; cover/seal the plate. Centrifuge 1 min 1000 rpm. Incubate at RT for 60 min.
HTRF ratio values calculated by the instrument (Ratio is acceptor counts/donor counts*10,000) is exported from the plate reader and used in data analysis. The exported data will be used to calculate 1) compound activity and 2) assay statistics. […] Assay statistics can include Robust Z′ and Signal to Background.
% Inhibition Calculation: Percent inhibition will be calculated for sample wells based on the equation: […]
IC50 Calculation: For IC50 determination, full 11-point dose response data will be processed using the following equation: […]

A further experiment deals with PDGFRβ (Rattus norvegicus (Rat), UniProt Q05030). The experiment is described as follows: PDGFRβ Cellular Assay (PDGFRb P-Y751 HTRF, PDGF-BB stimulated A10 cells). The class given is cell-based. The conditions noted are these: A10 cells, 3 hours compound, 15 ng/mL PDGFbb for 10 minutes; read-out: PDGFR Cellular IC50. The gist of the method:
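Rat A10 cells plated overnight were treated with compound for 3 h, stimulated with rat PDGF-BB (working stock 100 ng/mL in 10% FBS medium) for 10 min, then lysed.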

Experiment [2] addresses Tb-labeled inactive PDGFRβ (Homo sapiens (Human), UniProt P09619). The experiment is described as follows: biochemical. The class given is binding. The settings on record: read-out: PDGFR Lantha IC50.
The next experiment has as its target VEGFR2, unphosphorylated (Homo sapiens (Human), UniProt P35968). The experiment is described as follows: VEGFR ADP GLO assay. The format is biochemical. The conditions noted are these: 5 nM VEGFR2, 1.2 mM ATP, 1 mg/mL Srctide, 180 min. The gist of the method: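 Unphosphorylated kinase (10 nM 2× solution) pre-incubated 30 min at RT with compounds (11-point, 3-fold, top 10 µM), then reacted 180 min with srctide and ATP (2×: 2 mg/mL, 2.4 mM) in HEPES pH 7.5 buffer. ADP read by luminescence. IC50 from 4-parameter fit, normalized to DMSO and 1 µM TAK-593.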
(In general: ADP-Glo first removes unused ATP, then detects ADP through luciferase.)

VEGFR2, unphosphorylated, sequence (P35968 whole entry, looked up): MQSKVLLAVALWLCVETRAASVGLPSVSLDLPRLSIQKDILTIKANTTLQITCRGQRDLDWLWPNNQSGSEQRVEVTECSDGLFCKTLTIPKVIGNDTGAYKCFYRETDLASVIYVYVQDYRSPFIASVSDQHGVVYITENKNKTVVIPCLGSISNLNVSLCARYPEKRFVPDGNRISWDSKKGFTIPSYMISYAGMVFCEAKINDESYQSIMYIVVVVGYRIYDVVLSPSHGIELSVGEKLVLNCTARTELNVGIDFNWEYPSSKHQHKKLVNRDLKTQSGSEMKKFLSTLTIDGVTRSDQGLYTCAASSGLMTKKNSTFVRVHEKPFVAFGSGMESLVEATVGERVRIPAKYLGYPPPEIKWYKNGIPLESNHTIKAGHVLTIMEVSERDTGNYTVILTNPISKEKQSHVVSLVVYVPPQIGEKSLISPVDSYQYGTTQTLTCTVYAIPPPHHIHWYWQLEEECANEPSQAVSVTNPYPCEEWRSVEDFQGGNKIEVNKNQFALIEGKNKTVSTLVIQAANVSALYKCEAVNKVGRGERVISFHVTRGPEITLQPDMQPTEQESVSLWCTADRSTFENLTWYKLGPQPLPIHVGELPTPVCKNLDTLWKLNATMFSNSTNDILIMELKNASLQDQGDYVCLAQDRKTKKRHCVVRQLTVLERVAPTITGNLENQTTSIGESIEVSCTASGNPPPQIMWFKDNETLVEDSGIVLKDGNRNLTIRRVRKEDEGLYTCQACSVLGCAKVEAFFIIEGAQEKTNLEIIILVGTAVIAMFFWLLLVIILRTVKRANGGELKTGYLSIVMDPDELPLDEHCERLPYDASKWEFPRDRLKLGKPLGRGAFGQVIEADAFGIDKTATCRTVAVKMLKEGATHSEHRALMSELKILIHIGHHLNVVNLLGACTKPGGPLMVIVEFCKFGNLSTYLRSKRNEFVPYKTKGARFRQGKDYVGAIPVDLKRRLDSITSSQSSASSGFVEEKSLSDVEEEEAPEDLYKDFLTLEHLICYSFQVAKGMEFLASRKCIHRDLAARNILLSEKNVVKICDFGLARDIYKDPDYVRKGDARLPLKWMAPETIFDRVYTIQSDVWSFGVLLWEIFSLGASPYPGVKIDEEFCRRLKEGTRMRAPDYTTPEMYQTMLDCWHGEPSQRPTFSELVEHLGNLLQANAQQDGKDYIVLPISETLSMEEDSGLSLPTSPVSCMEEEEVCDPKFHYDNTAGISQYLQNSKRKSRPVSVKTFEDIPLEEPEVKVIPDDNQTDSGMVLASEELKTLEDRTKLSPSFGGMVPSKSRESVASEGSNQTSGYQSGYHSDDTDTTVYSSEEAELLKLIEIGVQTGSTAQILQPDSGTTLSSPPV
His6-TEV-PDGFRβ (557-1016), sequence (P09619 whole entry, looked up): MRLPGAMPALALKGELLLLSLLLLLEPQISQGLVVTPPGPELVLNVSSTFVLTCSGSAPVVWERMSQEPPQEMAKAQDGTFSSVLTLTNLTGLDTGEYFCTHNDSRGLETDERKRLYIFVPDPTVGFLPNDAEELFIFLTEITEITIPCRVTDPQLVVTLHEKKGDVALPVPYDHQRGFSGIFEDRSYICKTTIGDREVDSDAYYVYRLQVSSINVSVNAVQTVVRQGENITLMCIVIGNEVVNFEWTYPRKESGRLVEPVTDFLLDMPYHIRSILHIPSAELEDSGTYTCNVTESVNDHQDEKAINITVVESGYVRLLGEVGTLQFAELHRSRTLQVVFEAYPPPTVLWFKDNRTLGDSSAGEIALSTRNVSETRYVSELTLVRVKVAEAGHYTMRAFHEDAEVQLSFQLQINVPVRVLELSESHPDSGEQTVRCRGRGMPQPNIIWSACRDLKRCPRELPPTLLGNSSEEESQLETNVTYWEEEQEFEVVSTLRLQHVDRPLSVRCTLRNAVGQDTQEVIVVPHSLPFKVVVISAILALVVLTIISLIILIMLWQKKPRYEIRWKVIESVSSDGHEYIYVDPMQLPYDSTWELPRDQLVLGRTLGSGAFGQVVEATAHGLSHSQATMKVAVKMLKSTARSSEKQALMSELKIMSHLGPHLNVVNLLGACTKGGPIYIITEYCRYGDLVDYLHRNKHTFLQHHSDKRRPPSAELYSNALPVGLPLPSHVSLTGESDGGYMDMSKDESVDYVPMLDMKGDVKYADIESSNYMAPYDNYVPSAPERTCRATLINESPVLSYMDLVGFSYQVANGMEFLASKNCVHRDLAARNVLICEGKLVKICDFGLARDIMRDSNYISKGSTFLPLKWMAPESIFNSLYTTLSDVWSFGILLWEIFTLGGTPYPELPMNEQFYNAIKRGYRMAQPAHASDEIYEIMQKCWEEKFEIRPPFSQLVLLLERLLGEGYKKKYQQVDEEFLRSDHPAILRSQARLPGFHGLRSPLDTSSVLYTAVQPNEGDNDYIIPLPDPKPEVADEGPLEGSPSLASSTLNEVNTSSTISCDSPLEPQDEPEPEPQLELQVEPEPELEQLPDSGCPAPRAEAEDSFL
Tb-labeled inactive PDGFRβ, sequence (P09619 whole entry, looked up): as above
PDGFRβ, sequence (Q05030 whole entry, looked up): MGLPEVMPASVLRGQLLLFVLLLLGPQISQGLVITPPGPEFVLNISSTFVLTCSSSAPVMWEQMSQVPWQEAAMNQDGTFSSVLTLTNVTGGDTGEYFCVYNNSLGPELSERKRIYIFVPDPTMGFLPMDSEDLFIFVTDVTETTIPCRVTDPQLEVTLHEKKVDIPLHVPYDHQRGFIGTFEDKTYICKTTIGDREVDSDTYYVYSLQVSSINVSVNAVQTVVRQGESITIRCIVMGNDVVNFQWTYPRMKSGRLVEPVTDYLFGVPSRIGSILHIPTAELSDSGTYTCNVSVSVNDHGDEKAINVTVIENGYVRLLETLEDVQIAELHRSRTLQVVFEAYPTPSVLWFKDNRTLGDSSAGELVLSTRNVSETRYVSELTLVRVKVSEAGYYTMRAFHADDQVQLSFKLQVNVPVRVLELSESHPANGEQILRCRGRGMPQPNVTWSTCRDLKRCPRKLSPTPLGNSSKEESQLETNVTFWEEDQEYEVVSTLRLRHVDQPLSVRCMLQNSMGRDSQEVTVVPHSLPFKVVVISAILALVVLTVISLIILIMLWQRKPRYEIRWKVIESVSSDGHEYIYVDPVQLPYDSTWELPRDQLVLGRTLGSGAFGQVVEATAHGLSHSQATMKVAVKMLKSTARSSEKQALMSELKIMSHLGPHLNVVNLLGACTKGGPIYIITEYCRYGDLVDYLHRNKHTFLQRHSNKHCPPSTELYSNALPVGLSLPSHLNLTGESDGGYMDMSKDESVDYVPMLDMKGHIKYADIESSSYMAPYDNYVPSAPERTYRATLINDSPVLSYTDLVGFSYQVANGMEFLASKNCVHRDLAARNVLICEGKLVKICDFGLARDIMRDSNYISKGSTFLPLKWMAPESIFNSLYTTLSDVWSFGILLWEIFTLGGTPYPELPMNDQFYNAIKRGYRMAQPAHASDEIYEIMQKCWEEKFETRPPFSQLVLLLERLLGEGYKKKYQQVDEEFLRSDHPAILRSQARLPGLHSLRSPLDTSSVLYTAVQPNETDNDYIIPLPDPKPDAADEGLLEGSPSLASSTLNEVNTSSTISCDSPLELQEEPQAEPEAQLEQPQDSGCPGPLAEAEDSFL

One may read the IC50 as the concentration at which inhibition is half-maximal. Regarding `Cc1ncc(C(=O)NCCN2CCCC2(C)C)cc1Nc1nn(C)c2nc(Nc3ccc(=O)n(C)n3)ncc12` [Example 31, N-(2-(2,2-dimethylpyrrolidin-1-yl)ethyl)-6-methyl-5-((1-methyl-6-((1-methyl-6-oxo-1,6-dihydropyridazin-3-yl)amino)-1H-pyrazolo[3,4-d]pyrimidin-3-yl)amino)nicotinamide], the 50% inhibitory concentration (IC50) in experiment [1] is 2.5 nM; on PDGFRβ, 390 nM; in experiment [2], 60.3 nM; at VEGFR2, unphosphorylated it was greater than 7500 nM.

`Cc1ncc(C(=O)NCCN2CCCC2(C)C)cc1Nc1nn(C)c2nc(Nc3ccc(N)nc3)ncc12` [Example 32, 5-((6-((6-aminopyridin-3-yl)amino)-1-methyl-1H-pyrazolo[3,4-d]pyrimidin-3-yl)amino)-N-(2-(2,2-dimethylpyrrolidin-1-yl)ethyl)-6-methylnicotinamide]: the 50% inhibitory concentration (IC50) is 0.54 nM in experiment [1]; 110 nM at PDGFRβ; 5.7 nM in experiment [2]; greater than 7500 nM against VEGFR2, unphosphorylated.

In the case of `Cc1ncc(C(=O)NCCN2CCCC2(C)C)cc1Nc1nn(C)c2nc(Nc3cncc(CC(=O)O)c3)ncc12` [Example 33, 2-(5-((3-((5-((2-(2,2-dimethylpyrrolidin-1-yl)ethyl)carbamoyl)-2-methylpyridin-3-yl)amino)-1-methyl-1H-pyrazolo[3,4-d]pyrimidin-6-yl)amino)pyridin-3-yl)acetic acid], the IC50 in experiment [1] was 1.21 nM; on PDGFRβ, greater than 3000 nM; in experiment [2], 8.8 nM; against VEGFR2, unphosphorylated, 2190 nM.

`Cc1ncc(C(=O)NCCN2CCCC2(C)C)cc1Nc1nn(C)c2nc(Nc3ccc(=O)[nH]c3)ncc12` [Example 35, N-(2-(2,2-dimethylpyrrolidin-1-yl)ethyl)-6-methyl-5-((1-methyl-6-((6-oxo-1,6-dihydropyridin-3-yl)amino)-1H-pyrazolo[3,4-d]pyrimidin-3-yl)amino)nicotinamide]: the concentration for half-maximal inhibition (IC50) in experiment [1] is 0.68 nM; on PDGFRβ, 1650 nM; in experiment [2], 4.7 nM; against VEGFR2, unphosphorylated, greater than 7500 nM.

With `Cc1ncc(C(=O)NCCN2CCCC2(C)C)cc1Nc1nn(C)c2nc(Nc3ccc(=O)[nH]n3)ncc12` [Example 36, N-(2-(2,2-dimethylpyrrolidin-1-yl)ethyl)-6-methyl-5-((1-methyl-6-((6-oxo-1,6-dihydropyridazin-3-yl)amino)-1H-pyrazolo[3,4-d]pyrimidin-3-yl)amino) nicotinamide], the IC50 in experiment [1] is 4.11 nM; at PDGFRβ it was greater than 3000 nM; in experiment [2] it was 88.3 nM; against VEGFR2, unphosphorylated, greater than 7500 nM.

Consider `COC(=O)C1(c2cccc(Nc3ncc4c(Nc5cc(C(=O)NCCN6CCCC6(C)C)cnc5C)nn(C)c4n3)c2)CC1` [Example 37, methyl 1-(3-((3-((5-((2-(2,2-dimethylpyrrolidin-1-yl)ethyl)carbamoyl)-2-methylpyridin-3-yl)amino)-1-methyl-1H-pyrazolo[3,4-d]pyrimidin-6-yl)amino)phenyl)cyclopropanecarboxylate], for which the IC50 in experiment [1] stood at 0.79 nM; at PDGFRβ, 64.2 nM; in experiment [2], 6.5 nM; against VEGFR2, unphosphorylated, 5560 nM.

As to `Cc1ncc(C(=O)NCCN2CCCC2(C)C)cc1Nc1nn(C)c2nc(Nc3cccc(C4(C(=O)O)CC4)c3)ncc12` [Example 38, 1-(3-((3-((5-((2-(2,2-dimethylpyrrolidin-1-yl)ethyl)carbamoyl)-2-methylpyridin-3-yl)amino)-1-methyl-1H-pyrazolo[3,4-d]pyrimidin-6-yl)amino)phenyl)cyclopropanecarboxylic acid], the half-inhibitory concentration (IC50) in experiment [1] was 1.59 nM; at PDGFRβ it was greater than 3000 nM; in experiment [2], 15.3 nM; on VEGFR2, unphosphorylated, 715 nM.

Regarding `Cc1ncc(C(=O)NCCN2CCCC2(C)C)cc1Nc1nn(C)c2nc(Nc3cnn(C)n3)ncc12` [Example 40, N-(2-(2,2-dimethylpyrrolidin-1-yl)ethyl)-6-methyl-5-((1-methyl-6-((2-methyl-2H-1,2,3-triazol-4-yl)amino)-1H-pyrazolo[3,4-d]pyrimidin-3-yl)amino)nicotinamide], the 50% inhibitory concentration (IC50) in experiment [1] is 1.22 nM; at PDGFRβ it was 14.1 nM; in experiment [2], 13 nM; on VEGFR2, unphosphorylated, greater than 7500 nM.

As for `Cc1ncc(C(=O)NCCN2CCCC2(C)C)cc1Nc1nn(C)c2nc(Nc3ccnc(N)c3)ncc12` [Example 41, 5-((6-((2-aminopyridin-4-yl)amino)-1-methyl-1H-pyrazolo[3,4-d]pyrimidin-3-yl)amino)-N-(2-(2,2-dimethylpyrrolidin-1-yl)ethyl)-6-methylnicotinamide], the half-inhibitory concentration (IC50) is 0.36 nM in experiment [1]; 115 nM on PDGFRβ; 3.2 nM in experiment [2]; greater than 7500 nM at VEGFR2, unphosphorylated.

Regarding `Cc1ncc(C(=O)NCCN2CCCC2(C)C)cc1Nc1nn(C)c2nc(Nc3cccnc3)ncc12` [Example 42, N-(2-(2,2-dimethylpyrrolidin-1-yl)ethyl)-6-methyl-5-((1-methyl-6-(pyridin-3-ylamino)-1H-pyrazolo[3,4-d]pyrimidin-3-yl)amino)nicotinamide], the IC50 in experiment [1] was 0.6 nM; at PDGFRβ, 33.2 nM; in experiment [2], 3.9 nM; at VEGFR2, unphosphorylated, greater than 10000 nM.

Turning to `Cc1ncc(C(=O)NCCN2CCCC2(C)C)cc1Nc1nn(C)c2nc(Nc3cccc(CC(=O)O)c3)ncc12` [Example 44, 2-(3-((3-((5-((2-(2,2-dimethylpyrrolidin-1-yl)ethyl)carbamoyl)-2-methylpyridin-3-yl)amino)-1-methyl-1H-pyrazolo[3,4-d]pyrimidin-6-yl)amino)phenyl)-acetic acid], the IC50 in experiment [1] is 1.54 nM; on PDGFRβ, 2660 nM; in experiment [2], 9.7 nM; against VEGFR2, unphosphorylated, 2190 nM.

Take `Cc1ncc(C(=O)NCCN2CCCC2(C)C)cc1Nc1nn(C)c2nc(Nc3cccc(C(C)(C)C(=O)O)c3)ncc12` [Example 47, 2-(3-((3-((5-((2-(2,2-dimethylpyrrolidin-1-yl)ethyl)carbamoyl)-2-methylpyridin-3-yl)amino)-1-methyl-1H-pyrazolo[3,4-d]pyrimidin-6-yl)amino)phenyl)-2-methylpropanoic acid]: the IC50 in experiment [1] was 2.58 nM; at PDGFRβ, greater than 3000 nM; in experiment [2], 14.6 nM; at VEGFR2, unphosphorylated it was 2420 nM.

As to `Cc1cc(C(=O)NCCN2CCCC2(C)C)sc1Nc1nn(C)c2nc(Nc3cncnc3)ncc12` [Example 48, N-(2-(2,2-dimethylpyrrolidin-1-yl)ethyl)-4-methyl-5-((1-methyl-6-(pyrimidin-5-ylamino)-1H-pyrazolo[3,4-d]pyrimidin-3-yl)amino)thiophene-2-carboxamide], the IC50 was 1.07 nM in experiment [1]; 110 nM on PDGFRβ; 52.8 nM in experiment [2]; greater than 7500 nM on VEGFR2, unphosphorylated.

With `COC1CCN(CCNC(=O)c2cc(C)c(Nc3nn(C)c4nc(Nc5cnn(C)c5)ncc34)s2)CC1` [Example 49, N-(2-(4-methoxypiperidin-1-yl)ethyl)-4-methyl-5-((1-methyl-6-((1-methyl-1H-pyrazol-4-yl)amino)-1H-pyrazolo[3,4-d]pyrimidin-3-yl)amino)thiophene-2-carboxamide], the IC50 in experiment [1] was 1.17 nM; at PDGFRβ it was 105 nM; in experiment [2], 40.2 nM; at VEGFR2, unphosphorylated, greater than 7500 nM.
